Among the data in PubChem BioAssay (NCI) are TGI values, retold here.

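All cell lines were grown in 96-well plates and treated with compound for 48 hours. TGI is the concentration that stops growth completely.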 Bounds are passed on as bounds.

Test systems include COLO 205 colon; HCT-116 colon; IGROV1 ovarian; M14 melanoma; EKVX NSCLC; A498 renal; TK-10 renal; MALME-3M melanoma; HOP-92 NSCLC; A549 NSCLC.
Common to all, as to assay: NCI anticancer screen, dose series, 48 h

Turning to `O=C(c1ccccc1)[C@H]1Nc2cnccc2C2c3ccccc3CC21` (some centres undefined), the TGI in the assay on COLO 205 colon was 42.9 µM; in the assay with HCT-116 colon, greater than 38.4 µM; in the assay on IGROV1 ovarian it was greater than 58.6 µM; in the assay on M14 melanoma it was 19.9 µM; in the assay with EKVX NSCLC, 71 µM; in the assay on A498 renal it was 75.4 µM. Moreover, the TGI is greater than 81.9 µM with TK-10 renal, 27.4 µM with MALME-3M melanoma, 37.4 µM in the assay on HOP-92 NSCLC and 74.5 µM in the assay on A549 NSCLC.

In the case of `Cc1ccc(C(=O)c2[nH]c(Nc3cc(C)ccn3)c(C(=S)Nc3ccccc3)c2N)cc1`, the TGI in the assay on COLO 205 colon, in the assay with HCT-116 colon, with IGROV1 ovarian, in the assay with M14 melanoma, in the assay with EKVX NSCLC and with A498 renal was greater than 100 µM in each case. In addition, the TGI with TK-10 renal, with MALME-3M melanoma, in the assay on HOP-92 NSCLC and in the assay with A549 NSCLC was greater than 100 µM throughout.

For `NS(=O)(=O)c1nnc(NSc2ccc([N+](=O)[O-])cc2)s1`, the TGI in the assay with COLO 205 colon, in the assay on HCT-116 colon, with M14 melanoma, in the assay on EKVX NSCLC, in the assay on A498 renal and in the assay on TK-10 renal was greater than 100 µM each time. Besides, the TGI in the assay with MALME-3M melanoma, with HOP-92 NSCLC and in the assay on A549 NSCLC was greater than 100 µM throughout.

Turning to `CCN(C(=O)N[C@H](C(=O)N[C@@H](C)C(=O)OC)C(C)C)c1ccccc1`, the TGI in the assay on COLO 205 colon was 43.4 µM; with HCT-116 colon, 68.6 µM; in the assay with IGROV1 ovarian, greater than 100 µM; in the assay on M14 melanoma, greater than 100 µM; with EKVX NSCLC, greater than 100 µM; in the assay with A498 renal it was greater than 100 µM. Also, the TGI with TK-10 renal was 98.6 µM; in the assay with MALME-3M melanoma, 55.9 µM; with HOP-92 NSCLC, 78.6 µM; in the assay on A549 NSCLC it was greater than 100 µM.

For the compound `CN1c2ccccc2C(=O)NC12CCN(CC1COc3ccccc3O1)CC2` (centres undefined), the TGI with COLO 205 colon was greater than 100 µM; in the assay with HCT-116 colon, greater than 100 µM; in the assay on IGROV1 ovarian, greater than 100 µM; in the assay with M14 melanoma, greater than 100 µM; in the assay on EKVX NSCLC, greater than 100 µM; in the assay with A498 renal, 98.4 µM. For the same compound, the TGI is greater than 100 µM with TK-10 renal, greater than 100 µM in the assay on MALME-3M melanoma, 71.3 µM in the assay with HOP-92 NSCLC and greater than 100 µM in the assay with A549 NSCLC.

With `CC(C)(C)OC(=O)c1ccc(NCc2cc(O)ccc2O)cc1`, the TGI stood at 5.48 µM in the assay on COLO 205 colon; 16.1 µM in the assay with HCT-116 colon; 5.47 µM with IGROV1 ovarian; 7.35 µM in the assay on M14 melanoma; 12 µM in the assay on EKVX NSCLC; 19.5 µM in the assay with A498 renal. The TGI is 6.07 µM in the assay on TK-10 renal, 3.99 µM with MALME-3M melanoma, 3.4 µM in the assay with HOP-92 NSCLC and greater than 89.4 µM in the assay with A549 NSCLC.

Consider `CCOC(=O)/C(=C/c1ccco1)P(=O)(OCC)OCC`, for which the TGI in the assay with COLO 205 colon, in the assay with HCT-116 colon, in the assay on IGROV1 ovarian, in the assay with M14 melanoma, in the assay on EKVX NSCLC and in the assay with A498 renal was greater than 100 µM in each case. Also, the TGI in the assay with TK-10 renal, in the assay on MALME-3M melanoma, with HOP-92 NSCLC and in the assay with A549 NSCLC was greater than 100 µM each time.

For the compound `COC(=O)C1=C(C)N2[C@H](C(=O)O)CS[C@@]2(C)[C@H](C(=O)OC)[C@H]1c1cccc([N+](=O)[O-])c1`, the TGI in the assay on COLO 205 colon, in the assay on HCT-116 colon, in the assay with IGROV1 ovarian, in the assay on M14 melanoma, in the assay on EKVX NSCLC and with A498 renal was greater than 100 µM throughout. In addition, the TGI with TK-10 renal, with MALME-3M melanoma, with HOP-92 NSCLC and in the assay with A549 NSCLC was greater than 100 µM in each case.

As to `COc1ccc(N2C(=O)C3c4[nH]c5ccccc5c4C4C(C)CCCC4C3C2=O)cc1` (centres undefined), the TGI in the assay on COLO 205 colon, in the assay on HCT-116 colon, in the assay with IGROV1 ovarian, in the assay with M14 melanoma, in the assay on EKVX NSCLC and in the assay on A498 renal was greater than 100 µM throughout. For the same compound, the TGI is greater than 100 µM in the assay on TK-10 renal, 52.6 µM with MALME-3M melanoma, greater than 100 µM in the assay on HOP-92 NSCLC and greater than 100 µM with A549 NSCLC.

Consider `NC(CCSCC(F)F)C(=O)O` (centres undefined), for which the TGI in the assay on COLO 205 colon, in the assay on HCT-116 colon, in the assay on IGROV1 ovarian, with M14 melanoma, with EKVX NSCLC and with A498 renal was greater than 100 µM throughout. The TGI in the assay with TK-10 renal, in the assay on MALME-3M melanoma, in the assay on HOP-92 NSCLC and with A549 NSCLC was greater than 100 µM each time.

Turning to `O=C(/C=C1\C[C@H]2C=Nc3ccccc3C(=O)N2C1)NCCCCCNC(=O)/C=C1\C[C@H]2C=Nc3ccccc3C(=O)N2C1`, the TGI in the assay on COLO 205 colon is greater than 21 µM; with HCT-116 colon, 20.1 µM; in the assay with IGROV1 ovarian, 23.1 µM; with M14 melanoma it was 12.1 µM; in the assay on EKVX NSCLC, 38.5 µM; with A498 renal, 33.5 µM. Besides, the TGI in the assay with TK-10 renal was found to be 10.5 µM; in the assay with MALME-3M melanoma it was 7.09 µM; in the assay on HOP-92 NSCLC, 16.1 µM; in the assay on A549 NSCLC, 54.6 µM.

On to `CC(C)Cc1c(C#N)c(C#N)c(N)n1Cc1ccccc1`, for which the TGI in the assay on COLO 205 colon, in the assay on HCT-116 colon, in the assay with IGROV1 ovarian, with M14 melanoma, with EKVX NSCLC and in the assay on A498 renal was greater than 100 µM in each case. Moreover, the TGI in the assay on TK-10 renal, with MALME-3M melanoma, in the assay on HOP-92 NSCLC and with A549 NSCLC was greater than 100 µM each time.

For `CNc1ccc2c(c1)Cc1ccccc1-2`, the TGI is greater than 100 µM in the assay with COLO 205 colon; greater than 100 µM in the assay with HCT-116 colon; greater than 100 µM in the assay with IGROV1 ovarian; 71.3 µM in the assay with M14 melanoma; greater than 100 µM in the assay on EKVX NSCLC; 71.1 µM in the assay on A498 renal. The TGI with TK-10 renal is 93.8 µM; in the assay with MALME-3M melanoma, greater than 100 µM; in the assay with HOP-92 NSCLC, 64.1 µM; with A549 NSCLC it was 56.2 µM.
